Measurements published in patent US20080051387A1, “TETRAHYDROPYRIDO[3,4-D]PYRIMIDINES AND RELATED ANALOGUES” (priority 2006, published 2008).

Each molecule was assayed against T1, chimeric human H3 receptor (Homo sapiens, UniProt Q9Y5N1) (assay: Chimeric human H3 receptor GTP binding assay (agonist-stimulated GTP-gamma35S binding, Example 7)). Conditions: P2 membranes of Sf9 cells, 1 μM histamine as agonist, Ki from IC50 by Cheng-Prusoff; read-out: Ki.
T1 construct: rat Galpha-i2 (Gnai2, rat); made in house; host or cells: Sf9 insect cells (baculovirus); P2 membranes
T1 sequence (Q9Y5N1 with tags, fused parts or gaps): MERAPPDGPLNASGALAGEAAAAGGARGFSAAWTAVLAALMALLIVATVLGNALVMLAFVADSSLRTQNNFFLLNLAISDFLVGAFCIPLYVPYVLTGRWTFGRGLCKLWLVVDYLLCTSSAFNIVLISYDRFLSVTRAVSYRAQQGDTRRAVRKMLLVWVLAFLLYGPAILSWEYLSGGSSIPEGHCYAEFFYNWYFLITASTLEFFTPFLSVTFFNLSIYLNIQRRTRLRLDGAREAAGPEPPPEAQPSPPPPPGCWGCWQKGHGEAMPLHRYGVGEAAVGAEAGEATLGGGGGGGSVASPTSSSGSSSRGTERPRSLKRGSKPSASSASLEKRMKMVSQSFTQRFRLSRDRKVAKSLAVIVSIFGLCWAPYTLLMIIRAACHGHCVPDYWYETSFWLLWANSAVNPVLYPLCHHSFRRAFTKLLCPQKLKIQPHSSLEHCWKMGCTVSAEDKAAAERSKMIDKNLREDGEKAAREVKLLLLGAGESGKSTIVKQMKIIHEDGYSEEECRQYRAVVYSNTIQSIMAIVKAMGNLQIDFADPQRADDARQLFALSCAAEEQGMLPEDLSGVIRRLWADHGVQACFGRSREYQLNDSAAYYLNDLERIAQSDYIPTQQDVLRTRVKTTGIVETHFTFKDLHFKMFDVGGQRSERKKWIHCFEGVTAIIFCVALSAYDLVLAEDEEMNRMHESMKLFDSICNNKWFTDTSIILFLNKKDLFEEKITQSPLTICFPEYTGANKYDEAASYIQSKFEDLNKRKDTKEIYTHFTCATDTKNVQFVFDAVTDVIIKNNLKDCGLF
Assay type: biochemical
Source text: This Example illustrates a representative assay for evaluating agonist-stimulated GTP-gamma^35S binding (“GTP binding”) activity. […] This agonist-stimulated GTP binding activity can also be used to detect partial agonism mediated by antagonist compounds. A compound analyzed in this assay is referred to herein as a “test compound.”
Four independent baculoviral stocks (one directing the expression of the chimeric human H3 receptor and three directing the expression of each of the three subunits of a heterotrimeric G-protein) are used to infect a culture of Sƒ9 cells as described above. P2 membranes are prepared as described above, and agonist-stimulated GTP binding on the P2 membranes is assessed using histamine (Sigma Chemical Co., St. Louis, Mo.) as agonist in order to ascertain that the receptor/G-protein-alpha-beta-gamma combination(s) yield a functional response as measured by GTP binding. P2 membranes are resuspended by Dounce homogenization (tight pestle) in GTP binding assay buffer (50 mM Tris pH 7.4, 120 mM NaCl, 5 mM MgCl2, 2 mM EGTA, 1 mg/ml BSA, 0.2 mg/ml bacitracin, 0.02 mg/ml aprotinin, 0.01 mg/ml saponin, 10 μM GDP) and added to assay tubes at a concentration of 35 μg protein/reaction tube. After adding increasing doses of histamine at concentrations ranging from 10-12 M to 10^−5 M, reactions are initiated by the addition of 125 pM GTP-gamma^35S (PERKIN ELMER; Boston, Mass.) with a final assay volume of 0.20 ml. In competition experiments, non-radiolabeled test compounds are added to separate reactions at concentrations ranging from 10^−10 M to 10^−6 M along with 1 μM histamine to yield a final volume of 0.20 ml.
Neutral antagonists are antagonists that are substantially free of inherent agonist activity, and include those test compounds that reduce the histamine-stimulated GTP binding activity towards, but not below, baseline levels. In contrast, in the absence of added histamine, inverse agonists reduce the GTP binding activity of the receptor-containing membranes below baseline.
After a 60-min incubation at room temperature, reactions are terminated by vacuum filtration over WHATMAN GF/C filters (pre-soaked in wash buffer, 0.1% BSA) followed by washing with ice-cold wash buffer (50 mM Tris pH 7.4, 120 mM NaCl). The amount of receptor-bound (and thereby membrane-bound) GTP-gamma^35S is determined by measuring the filter-bound radioactivity, preferably by liquid scintillation spectrometry of the washed filters. Non-specific binding is determined in parallel assays including 10 μM unlabeled GTP-gammaS and typically represents less than 5 percent of total binding. Data is expressed as percent above basal (baseline). The results of GTP binding experiments are analyzed using SIGMAPLOT software (SPSS Inc., Chicago, Ill.). IC50 values are calculated by non-linear regression analysis of dose-response curves using Kaleidograph (Synergy Software, Reading, Pa.).
Alternatively the data is analyzed as follows. First, the average bound radioactivity from negative control wells (no agonist) is subtracted from the bound radioactivity detected for each of the other experimental wells. Second, average bound radioactivity is calculated for the positive control wells (agonist wells). Then, percent inhibition for each compound tested is calculated using the equation: [formula]
Calculated IC50 values are converted to Ki values by the Cheng-Prusoff correction (Cheng and Prusoff (1973) Biochem. Pharmacol. 22(23):3099-3108). Accordingly, the following equation: Ki=IC50/(1+[L]/EC50) is used, where [L] is the histamine concentration in the GTP binding assay, and EC50 is the concentration of histamine producing a 50% response, as determined by a dose-response analysis using concentrations of histamine ranging from 10^−10 M to 10^−6 M. […]

Ki, < 1 µM:
c1ccc(CN2CCc3nc(N4CCN(C5CCC5)CC4)ncc3C2)cc1 [Compound 605, 6-benzyl-2-(4-cyclobutylpiperazin-1-yl)-5,6,7,8-tetrahydropyrido[4,3-d]pyrimidine]
CC(C)(C)N1CCN(c2ncnc3c2CCN(Cc2ccccc2)C3)CC1 [Compound 13, 7-benzyl-4-(4-tert-butylpiperazin-1-yl)-5,6,7,8-tetrahydropyrido[3,4-d]pyrimidine]
c1nc(N2CCN(C3CCC3)CC2)nc2c1CN(C1CCC1)CC2 [Compound 609, 6-cyclobutyl-2-(4-cyclobutylpiperazin-1-yl)-5,6,7,8-tetrahydropyrido[4,3-d]pyrimidine]
CC(=O)c1ccc(OCC(=O)N2CCc3ncnc(N4CCN(C5CCC5)CC4)c3CC2)cc1 [Compound 143, 1-(4-{2-[4-(4-cyclobutylpiperazin-1-yl)-5,6,8,9-tetrahydro-7H-pyrimido[4,5-d]azepin-7-yl]-2-oxoethoxy}phenyl)ethanone]
CC(=O)c1ccc(N2CCc3nc(N4CCN(C5CCC5)CC4)ncc3C2)nc1 [Compound 610, 1-{6-[2-(4-cyclobutylpiperazin-1-yl)-7,8-dihydropyrido[4,3-d]pyrimidin-6(5H)-yl]pyridin-3-yl}ethanone]
c1nc(N2CCN(C3CCC3)CC2)nc2c1CN(CC1CCCCC1)CC2 [Compound 607, 2-(4-cyclobutylpiperazin-1-yl)-6-(cyclohexylmethyl)-5,6,7,8-tetrahydropyrido[4,3-d]pyrimidine]

Same assay, conditions: P2 membranes of Sf9 cells, 1 μM histamine as agonist; read-out: Ki in the assay of Example 7

Ki, < 1 µM:
c1nc2c(c(N3CCN(C4CCC4)CC3)n1)CCN(CC1CCCCC1)CC2 [Compound 6, 4-(4-Cyclobutyl-piperazin-1-yl)-7-cyclohexylmethyl-6,7,8,9-tetrahydro-5H-pyrimido[3,4-d]azepine]

Same assay, conditions: assay of Example 7; symbol "*" in column headed Ki; read-out: Ki

Ki, < 1 µM:
c1nc(N2CCN(C3CCC3)CC2)nc2c1CCN(C1CCOCC1)CC2 [Compound 591, 2-(4-cyclobutylpiperazin-1-yl)-7-(tetrahydro-2H-pyran-4-yl)-6,7,8,9-tetrahydro-5H-pyrimido[4,5-d]azepine]
FC(F)(F)CCN1CCc2cnc(N3CCN(C4CCC4)CC3)nc2CC1 [Compound 595, 2-(4-cyclobutylpiperazin-1-yl)-7-(3,3,3-trifluoropropyl)-6,7,8,9-tetrahydro-5H-pyrimido[4,5-d]azepine]
CC(C)(C)OC(=O)N1CCN(c2ncc3c(n2)CCN(C2CCC2)CC3)CC1 [Compound 601, tert-butyl 4-(7-cyclobutyl-6,7,8,9-tetrahydro-5H-pyrimido[4,5-d]azepin-2-yl)piperazine-1-carboxylate]
CC1CCC[C@@H]2CN(c3ncc4c(n3)CCN(CC3CCOCC3)CC4)CCN12 (stereo partly drawn) [Compound 597, 2-(6-methyloctahydro-2H-pyrido[1,2-a]pyrazin-2-yl)-7-(tetrahydro-2H-pyran-4-ylmethyl)-6,7,8,9-tetrahydro-5H-pyrimido[4,5-d]azepine]
COCCN1CCc2cnc(N3CCN(C4CCC4)CC3)nc2CC1 [Compound 593, 2-(4-cyclobutylpiperazin-1-yl)-7-(2-methoxyethyl)-6,7,8,9-tetrahydro-5H-pyrimido[4,5-d]azepine]
CNC(=O)c1ccc(N2CCN(c3ncc4c(n3)CCN(CC3CCOCC3)CC4)CC2)nc1 [Compound 603, N-methyl-6-{4-[7-(tetrahydro-2H-pyran-4-ylmethyl)-6,7,8,9-tetrahydro-5H-pyrimido[4,5-d]azepin-2-yl]piperazin-1-yl}nicotinamide]
c1nc(N2CCN(C3CCC3)CC2)nc2c1CCN(C1CCC1)CC2 [Compound 590, 7-cyclobutyl-2-(4-cyclobutylpiperazin-1-yl)-6,7,8,9-tetrahydro-5H-pyrimido[4,5-d]azepine]
CC(=O)N1CCN(c2ncc3c(n2)CCN(C2CCC2)CC3)CC1 [Compound 600, 2-(4-acetylpiperazin-1-yl)-7-cyclobutyl-6,7,8,9-tetrahydro-5H-pyrimido[4,5-d]azepine]
CNC(=O)c1ccc(N2CCN(c3ncc4c(n3)CCN(C3CCC3)CC4)CC2)nc1 [Compound 604, 6-[4-(7-cyclobutyl-6,7,8,9-tetrahydro-5H-pyrimido[4,5-d]azepin-2-yl]piperazin-1-yl]-N-methylnicotinamide]
FC(F)(F)CN1CCc2cnc(N3CCN(C4CCC4)CC3)nc2CC1 [Compound 592, 2-(4-cyclobutylpiperazin-1-yl)-7-(2,2,2-trifluoroethyl)-6,7,8,9-tetrahydro-5H-pyrimido[4,5-d]azepine]
CCN1CCN(c2ncc3c(n2)CCN(C2CCC2)CC3)CC1 [Compound 599, 7-cyclobutyl-2-(4-ethylpiperazin-1-yl)-6,7,8,9-tetrahydro-5H-pyrimido[4,5-d]azepine]
